Where two headings read alike, the source gives them in different places.
Columns and labels:
Type in all cases: cell-based
[1] = tested on: HCV 1a RLuc cells (dicistronic genotype 1a H77 replicon, RLuc reporter); experiment: microbe, parasite or virus in culture; details: Hepatitis C virus, read-out: 1a
Outline: (§1)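 Replicons used: genotype 1b Con1, 1a H77, 2a JFH-1, and a 2a JFH-1 chimera with J6-strain NS5A (M31 present), all dicistronic.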

[2] = tested on: HCV 1b RLuc cells (dicistronic genotype 1b Con1 replicon, RLuc reporter); experiment: microbe, parasite or virus in culture; details: Hepatitis C virus, read-out: 1b (nM)
Outline: as §1

[3] = tested on: HCV 2a JFH-1 Rluc cells (dicistronic genotype 2a JFH-1 replicon, RLuc reporter); experiment: microbe, parasite or virus in culture; details: Hepatitis C virus, read-out: 2a JFH
Outline: as §1

[4] = tested on: HCV 2b Rluc cells (NS5A chimeric genotype 2a JFH-1 replicon with genotype 2b MD2b-1 NS5A gene, M31 present); experiment: microbe, parasite or virus in culture; details: Hepatitis C virus, read-out: 2b
Outline: (§2)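 Replicon cells stably carrying the listed RLuc-encoding dicistronic replicons were seeded and treated with DMSO serial dilutions of compound (10 mM stocks) diluted into culture medium. After 72 h, cells were lysed and Renilla luciferase activity measured. EC50 was derived by non-linear regression.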

[5] = tested on: HCV 3a RLuc cells (NS5A chimeric genotype 1b Con1 replicon with consensus genotype 3a NS5A gene); experiment: microbe, parasite or virus in culture; details: Hepatitis C virus
Outline: as §2

[6] = tested on: HCV 4a Rluc cells (NS5A chimeric genotype 1b Con1 replicon with genotype 4a NS5A gene); experiment: microbe, parasite or virus in culture; details: Hepatitis C virus, read-out: 4a
Outline: as §2

[7] = tested on: HCV 2a Rluc cells (NS5A chimeric genotype 2a JFH-1 replicon with genotype 2a J6 strain NS5A gene, M31 present); experiment: HCV replicon reporter assay, genotype 2a J6 (M31 present); details: Hepatitis C virus, read-out: 2a J6
Outline: as §1

[8] = read-out: 3a, genotype 3a replicon
[9] = genotype 2a JFH-1 RLuc replicon
[10] = read-out: 3a, genotype 3a NS5A chimeric replicon

Row | SMILES | EC50 ([1]; genotype 1a replicon) [nM] | EC50 [2] [nM] | EC50 ([3]; genotype 2a JFH-1 replicon) [nM] | EC50 [4] [nM] | EC50 [5, 8] [nM] | EC50 [6] [nM] | EC50 [7] [nM] | EC50 ([1]; genotype 1a H77 RLuc replicon) [nM] | EC50 [3, 9] [nM] | EC50 [5, 10] [nM] | EC50 ([1]; 72 h, Table 1, genotype 1a H77 replicon, 72 hours) [nM] | EC50 ([2]; 72 h) [nM] | EC50 ([3]; 72 h, Table 1, genotype 2a JFH-1 replicon, 72 hours) [nM] | EC50 ([5]; read-out: 3a, Table 1, genotype 3a NS5A chimeric replicon) [nM] | EC50 ([1]; genotype 1a H77 replicon, RLuc reporter) [nM] | EC50 ([3]; genotype 2a JFH-1 replicon, RLuc reporter) [nM] | EC50 ([5]; read-out: 3a, genotype 3a NS5A chimeric 1b Con1 replicon) [nM]
1 | COC[C@H]1C[C@@H](c2nc3ccc4cc(-c5ccc(-c6cnc([C@@H]7CCCN7C(=O)[C@@H](NC(=O)OC)C(C)C)[nH]6)cc5)ccc4c3[nH]2)N(C(=O)[C@@H](NC(=O)OC)C(C)C)C1 [Example 417] | 0.001 to 0.999 | 0.024 | 0.001 to 0.999 | 1 to 44 | 0.001 to 0.99 | 0.001 to 0.99 | 1 to 44 |  |  |  |  |  |  |  |  |  | 
2 | COC(=O)N[C@H](C(=O)N1[C@@H]2CC[C@@H](C2)[C@H]1c1ncc(-c2ccc(-c3ccc4c(ccc5nc([C@@H]6C[C@H]7C[C@H]7N6C(=O)[C@H](NC(=O)OC)c6ccccc6)[nH]c54)c3)cc2)[nH]1)C(C)C [Example 379] | 0.001 to 0.999 | 0.009 | 0.001 to 0.999 | > 44 | 0.001 to 0.99 | 0.001 to 0.99 | 0.001 to 0.999 |  |  |  |  |  |  |  |  |  | 
3 | COC(=O)N[C@H](C(=O)N1[C@@H]2C[C@@H]2C[C@H]1c1ncc(-c2cc3c4c(c2)OCc2cc(-c5cnc([C@@H]6C[C@H]7C[C@H]7N6C(=O)[C@H](NC(=O)OC)c6ccccc6)[nH]5)cc(c2-4)OC3)[nH]1)C(C)C [Example 501] |  | 0.021 |  | 1 to 44 |  | 0.001 to 0.99 | > 44 | 0.001 to 0.999 | 0.001 to 0.999 | 0.001 to 0.99 |  |  |  |  |  |  | 
4 | COC(=O)N[C@H](C(=O)N1CCC[C@H]1c1ncc(-c2ccc3c4ccc(-c5cnc([C@@H]6CCCN6C(=O)[C@@H](NC(=O)OC)C(C)C)[nH]5)cc4c4ccccc4c3c2)[nH]1)C(C)C [Example 22] |  |  |  | > 44 |  | 0.001 to 0.99 | > 44 |  |  |  | 0.001 to 0.999 | 0.005 | 0.001 to 0.999 | 0.001 to 0.99 |  |  | 
5 | COC(=O)N[C@H](C(=O)N1CCC[C@H]1c1nc2ccc3cc(-c4ccc5c(ccc6nc([C@@H]7C[C@H](COC(F)F)CN7C(=O)[C@H](NC(=O)C7CC7)c7ccccc7)[nH]c65)c4)ccc3c2[nH]1)C(C)C [Example 547] |  | 0.005 |  | 0.001 to 0.999 |  | 0.001 to 0.99 | 0.001 to 0.999 | 0.001 to 0.999 | 0.001 to 0.999 | 0.001 to 0.99 |  |  |  |  |  |  | 
6 | COC[C@H]1C[C@@H](c2nc3ccc4cc(-c5ccc6c(ccc7nc([C@@H]8CCCN8C(=O)[C@@H](NC(=O)OC)C(C)C)[nH]c76)c5)ccc4c3[nH]2)N(C(=O)[C@H](NC(=O)C2CC2)c2ccccc2)C1 [Example 508] |  | 0.026 |  | 0.001 to 0.999 |  | 0.001 to 0.99 | 0.001 to 0.999 | 0.001 to 0.999 | 0.001 to 0.999 | 0.001 to 0.99 |  |  |  |  |  |  | 
7 | COC(=O)N[C@H](C(=O)N1CCC[C@H]1c1ncc(-c2cc3c4c(ccc5cc(-c6cnc([C@@H]7CCCN7C(=O)[C@@H](NC(=O)OC)C(C)C)[nH]6)cc(c54)OC3)c2)[nH]1)C(C)C [Example 408] | 0.001 to 0.999 | 0.022 | 0.001 to 0.999 | > 44 | 0.001 to 0.99 | 0.001 to 0.99 | > 44 |  |  |  |  |  |  |  |  |  | 
8 | COC[C@H]1CC[C@@H](c2ncc(-c3cc4c5c(c3)OCc3cc(-c6cnc([C@@H]7CC[C@H](COC)N7C(=O)[C@@H](NC(=O)OC)C(C)C)[nH]6)cc(c3-5)OC4)[nH]2)N1C(=O)[C@@H](NC(=O)OC)C(C)C [Example 578] |  | 0.022 |  | > 44 |  | 0.001 to 0.99 | > 44 | 0.001 to 0.999 | 0.001 to 0.999 | 0.001 to 0.99 |  |  |  |  |  |  | 
9 | COC(=O)N[C@H](C(=O)N1CCC[C@H]1c1nc2ccc3cc(-c4ccc5c(ccc6nc([C@@H]7CCCN7C(=O)[C@H](NCC(F)(F)F)c7ccccc7)[nH]c65)c4)ccc3c2[nH]1)C(C)C [Example 403] | 0.001 to 0.999 | 0.014 | 0.001 to 0.999 | 0.001 to 0.999 | 0.001 to 0.99 | 0.001 to 0.99 | 0.001 to 0.999 |  |  |  |  |  |  |  |  |  | 
10 | COC(=O)N[C@H](C(=O)N1CCC[C@H]1c1ncc(-c2ccc3cc(-c4ccc5c(ccc6nc([C@@H]7CCCN7C(=O)[C@H](NC(=O)OC)c7ccccc7)[nH]c65)c4)ccc3c2)[nH]1)C(C)C [Example 169] |  | 0.006 |  | > 44 |  | 0.001 to 0.99 | > 44 |  |  |  |  |  |  |  | 0.001 to 0.999 | 0.001 to 0.999 | 0.001 to 0.99
